From PMC8813873, “The HGR motif is the antiangiogenic determinant of vasoinhibin: implications for a therapeutic orally active oligopeptide” (Angiogenesis, 2021)
Read-outs that look alike come from different tables or passages of the source. Square brackets hold non-standard residues; d marks the D form. Ends that are not written are not given here. Peptide text beside a SMILES is read from it.

Assays:
HUVEC [1] = conditions: for Span: span of fitted dose-response curve, VEGF + bFGF-induced HUVEC proliferation relative to lowest and highest dose of CRIVi45-51
Procedure: HUVEC were seeded at 14,000 cells cm^−2 in a 96-well plate and, after 24 h, starved with 0.5% FBS for 12 h. The medium was refreshed with 20% FBS-F12K and incubated with 100 μg mL^−1 heparin together with 25 ng mL^−1 VEGF and 20 ng mL^−1 bFGF for 24 h in combination with a single dose (100 nM) or different concentrations of PRL, vasoinhibin, or synthetic oligopeptides. DNA synthesis was quantified by the DNA incorporation of the thymidine analog 5-ethynyl-2’-deoxyuridine (EdU, Sigma) labeled by the click reaction with fluorescent Azide Fluor 545 (Sigma-Aldrich) as reported.
Endothelial cell proliferation. BUVEC-E6E7 cells seeded at 14,000 cells cm^-2 in a 96-well plate were starved with 0.1% FBS for 24 h and treated or not with VEGF (50 ng mL^-1) in starvation medium with or without different concentrations of five peptides synthesized along the 45 to 58 residue sequence of human PRL or with recombinant vasoinhibin of 123 amino acids (positive control). HUVEC cells were seeded at 14,000 cells cm^-2 in a 96-well plate for 24 h and starved with 0.5% FBS for 12 h. Medium was then replaced by 20% FBS-F12K and 100 μg mL^-1 heparin containing or not VEGF (25 ng mL^-1), bFGF (20 ng mL^-1), IL-1b (10 ng mL^-1), or BK (10 μM) or a combination of 25 ng mL^-1 of VEGF and 20 ng mL^-1 of bFGF for 24 h in the presence or absence of a single dose (100 nM) or different doses of PRL (negative control), recombinant vasoinhibin, Vi45-51, synthetic peptides having the same residue composition as the 45-51 segment but in scrambled order (negative control), Vi45-51 subjected to alanine scanning mutagenesis, a tripeptide comprising residues 46 to 48 of vasoinhibin (Vi46-48), a Vi45-51 where G47 was deleted (des-G^47), a conserved version of the Vi45-51 (cVi45-51) and the QGR tripeptide, heptapeptides comprising residues 39 to 45 of growth hormone (GH39-45) or placental lactogen (PL39-45), tripeptides EQK and QKY, the dipeptide QK (Table S2), alanine mutants of the vasoinhibin with 123 residues (Vi-H46A, Vi-R48A, Vi-H46A/R48A), alanine mutants of PRL (PRL-E161A, PRL-E162A, PRL-E161A/E162A), CRIVi45-51, antiangiogenic proteins (endostatin, angiostatin), antiangiogenic oligopeptides (anginex, cilengitide), or antiangiogenic tyrosine-kinase inhibitors (pazopanib, sunitinib, sorafenib). DNA synthesis was quantified by the DNA incorporation of the thymidine analogue 5-ethynyl-2’-deoxyuridine (EdU, Sigma) added at the time of treatments and labelled by the click reaction with fluorescent Azide Fluor 545 (Sigma-Aldrich) as reported. Images were obtained in a fluorescent inverted microscope (Olympus IX51, Japan) and quantified using the CellProfiler software. The number of EdU-positive cells over total DNA (Hoechst)-stained cells was expressed as percentage proliferation. B16-F10 cells and HUVEC were seeded at 12,600 cells cm^-2 and 7,400 cells cm^-2, respectively, in a 24-well plate and incubated for different times in complete medium in the absence or presence of 100 nM CRIVi45-51 added every 24 h. Cells were trypsinized and counted.

HUVEC [2] = experiment: HUVEC cell density over time (cell counting); format: cell-based, human; conditions: 100 nM added every 24 h, complete medium, n = 9
Procedure: (§1) Endothelial cell proliferation. BUVEC-E6E7 cells seeded at 14,000 cells cm^-2 in a 96-well plate were starved with 0.1% FBS for 24 h and treated or not with VEGF (50 ng mL^-1) in starvation medium with or without different concentrations of five peptides synthesized along the 45 to 58 residue sequence of human PRL or with recombinant vasoinhibin of 123 amino acids (positive control). HUVEC cells were seeded at 14,000 cells cm^-2 in a 96-well plate for 24 h and starved with 0.5% FBS for 12 h. […] DNA synthesis was quantified by the DNA incorporation of the thymidine analogue 5-ethynyl-2’-deoxyuridine (EdU, Sigma) added at the time of treatments and labelled by the click reaction with fluorescent Azide Fluor 545 (Sigma-Aldrich) as reported. Images were obtained in a fluorescent inverted microscope (Olympus IX51, Japan) and quantified using the CellProfiler software. The number of EdU-positive cells over total DNA (Hoechst)-stained cells was expressed as percentage proliferation. […] Cells were trypsinized and counted.

[3] = Heat treatment, residual antiproliferative activity; format: physicochemical; conditions: 2 μM solution, 97 °C, 15 min; read-out inhibition of VEGF + bFGF-induced HUVEC proliferation at 10 nM, n = 9
B16-F10 melanoma tumors = experiment: B16-F10 melanoma tumor model; format: in vivo; conditions: C57BL6 mice
Procedure: The mouse model of primary tumor development based on the use of B16-F10 melanoma cells was used as previously reported. Briefly, anesthetized female C57BL6 mice (8–12 weeks-old) were inoculated into their right flank with 10^5 B16-F10 cells. Five days after tumor cell inoculation, mice were treated daily with vehicle (NS) or CRIVi45–51 injected into the lateral tail vein or via intragastric gavage for the 8 d following tumor cell injection. Animals were then euthanized by cervical dislocation and the tumors weighted and processed to evaluate blood vessels by immunofluorescence or RT-qPCR.
Tumor model. Female C57BL6 mice (8-12 weeks-old) under 2.5% isoflurane anesthesia (SomnoSuite system, Kent Scientific, Torrington, CT) were inoculated into their right flank with 10^5 B16-F10 cells in 50 μL PBS. Tumor length and width were measured daily, and volume was estimated by the formula: Volume = (length x width^2) x 0.5. Five days after tumor cell inoculation, mice were injected daily into the lateral tail vein with vehicle (normal saline) or 0.1 or 1.0 mg kg^-1 CRIVi45-51, and tumor volumes were assessed daily for the following 8 d. In other experiments, 1.0 mg kg^-1 CRIVi45-51 or vehicle was delivered daily intragastrically through a 20G x 1.5’’ curved metal gavage canula (Cadence Science, Staunton, VA) for the 8 d following tumor cell injection. Animals were then euthanized by cervical dislocation and the tumors processed or frozen to evaluate blood vessels by immunofluorescence or RT-qPCR, respectively. […] Tumor sections were cover-slipped with Vectashield H-1000 (Vector Laboratories) and digitalized at 20X and 40X magnification under a fluorescence microscope (Olympus BX60). The number of vessels per tumor area measured vascular density. CD-31 and VE-Cad mRNA levels were quantified by RT-qPCR following the method already described in the retinal angiogenesis assay section.

B16-F10 cells = experiment: B16-F10 cell growth in vitro (cell counting); format: cell-based, mouse; conditions: 100 nM added every 24 h, cell density over time, n = 9
Procedure: as §1

pepsin = pepsin (Sus scrofa, UniProt P00791); experiment: Pepsin digestion, residual antiproliferative activity; conditions: 4 μM, 1:20 protease to substrate molar ratio, 40 mM HCl, 37 °C, 5 h; read-out inhibition of VEGF + bFGF-induced HUVEC proliferation at 10 nM, n = 9
[4] = VEGF 25 ng/mL + bFGF 20 ng/mL-induced HUVEC proliferation, 24 h, EdU incorporation, non-linear best fit, n = 9

Chain of pepsin (P00791 60-385): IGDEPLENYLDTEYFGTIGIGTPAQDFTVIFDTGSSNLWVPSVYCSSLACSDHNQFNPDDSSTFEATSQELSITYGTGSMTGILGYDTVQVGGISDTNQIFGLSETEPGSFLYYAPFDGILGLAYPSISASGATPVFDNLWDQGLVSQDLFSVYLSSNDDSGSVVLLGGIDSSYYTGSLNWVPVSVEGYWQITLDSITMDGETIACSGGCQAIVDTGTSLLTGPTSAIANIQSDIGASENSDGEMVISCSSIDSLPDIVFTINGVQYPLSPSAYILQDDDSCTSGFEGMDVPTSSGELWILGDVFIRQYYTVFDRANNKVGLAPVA

In the case of `CC[C@@H](C)[C@H]1NC(=O)[C@@H]([C@H](C)O)NC(=O)[C@@H](Cc2c[nH]cn2)NC(=O)CNC(=O)[C@@H](CCCNC(=N)N)NC(=O)CNC(=O)[C@@H](Cc2ccccc2)NC1=O` [CRIVi45–51, cyclic-retro-inverse-vasoinhibin-(45–51)-peptide] (cyclo([dI][dF]G[dR]G[dH][dT])), the “fold lower IC50 than other antiangiogenic proteins (endostatin and angiostatin) and peptides (anginex and cilengitide)” value (HUVEC [1]; ratio of IC50 values, VEGF + bFGF-induced HUVEC proliferation) is reported as 2.7- to 214 fold, the Span (HUVEC [1]; non-linear best fit, n = 9) is reported as 86.86% and the “HUVEC cell density over time” value (HUVEC [2]) is reported as “reduces proliferation”. The “activity after heat inactivation” value [3] was “retained full activity”, the “tumor growth, oral administration” value (B16-F10 melanoma tumors; B16-F10, 1.0 mg/kg daily intragastric gavage, 8 d, n = 9) was “decreased tumor growth with similar efficacy to intravenous delivery” and the “tumor growth, intravenous” value (B16-F10 melanoma tumors; B16-F10, daily i.v. 0.1 or 1.0 mg/kg for 8 d from day 5, n = 9) was “reduced tumor growth in a dose-related manner”. For the same molecule, the “tumor vascular density and expression of CD31” value (B16-F10 melanoma tumors; B16-F10 tumors, daily i.v., n = 9) was “reduce”, the “growth of melanoma cells in vitro” value (B16-F10 cells) was “did not inhibit” and the “resistance to pepsin degradation” value (pepsin) was “resistant”.

`Cc1ccc(Nc2nccc(N(C)c3ccc4c(C)n(C)nc4c3)n2)cc1S(N)(=O)=O` [Pazopanib, reference compound] gave a Span (HUVEC [1]; non-linear best fit, n = 9) of 83.73%.

`CNC(=O)c1cc(Oc2ccc(NC(=O)Nc3ccc(Cl)c(C(F)(F)F)c3)cc2)ccn1` [Sorafenib, reference compound] gave a Span (HUVEC [1]; non-linear best fit, n = 9) of 106.00%.

`CCN(CC)CCNC(=O)c1c(C)[nH]c(/C=C2\C(=O)Nc3ccc(F)cc32)c1C` [Sunitinib, reference compound] showed a Span (HUVEC [1]; non-linear best fit, n = 9) of 93.64%.

In the case of “ANIKLSVQMKLFKRHLKWKIIVKLNDGRELSLD [Anginex, reference compound]”, the Span (HUVEC [1]; non-linear best fit, n = 9) is reported as 73.13%.

“Ac-THGRGFI-NH2 [Vi45–51, vasoinhibin-(45-51)-peptide]” showed an IC50 (HUVEC [1]; 24 h) of roughly 0.15 nM.

In the case of Angiostatin, the IC50 (HUVEC [1]; [4]) is reported as 0.388 nM and the Span (HUVEC [1]; non-linear best fit, n = 9) is reported as 68.47%.

Endostatin gave an IC50 (HUVEC [1]; [4]) of 31.2 nM and a Span (HUVEC [1]; non-linear best fit, n = 9) of 49.98%.

B1: PRL: Recombinant human prolactin (protein, UniProt P01236 29-227, looked up)
Prolactin: LPICPGGAARCQVTLRDLFDRAVVLSHYIHNLSSEMFSEFDKRYTHGRGFITKAINSCHTSSLATPEDKEQAQQMNQKDFLSLIVSILRSWNEPLYHLVTEVRGMQEAPEAILSKAVEIEEQTKRLLEGMELIVSQVHPETKENEIYPVWSGLPSLQMADEESRLSAYYNLLHCLRRDSHKIDNYLKLLKCRIIHNNNC
With B1 the “dose-response inhibition of VEGF + bFGF-induced HUVEC proliferation (result in words)” value (HUVEC [1]; VEGF 25 ng/mL + bFGF 20 ng/mL, 24 h, EdU, n = 9) was “not antiangiogenic”.
